What was measured:
[1] = acute per os toxicity (LD50), measured on rats; assay type: in vivo, rat; details: rat, in vivo, po
Source text: (§1) The therapeutic indexes of current anthelmintics and transmix each having insecticidal activity and suitable for per os administration are shown in Table 1.

[2] = system: horse bots (Gastrophylus larvas); test: therapeutic dose / therapeutic index against horse bots; assay type: in vivo, Gastrophylus species (in horses); details: for Therapeutic index (selectivity): quotient of toxic (rat LD50) and therapeutic dose (horse bots)
Description: One of the most important characteristics of the pharmaceutical compositions is the quotient of toxic and therapeutic dosage, the so-called therapeutic index characterizing the security of use. The higher is this value, the smaller is the risk in use, the selective is the active ingredient.
On the basis of the results of the laboratory examinations and toxicity data the therapeutic dose usable for treating bot infection of horses was determined in field trials.
as §1

[3] = system: Musca domestica WHO/SRS (L3 larvas); test: hatching of imagos from L3 fly larvas on treated nutriment; assay type: in vivo; details: 12 days
Source text: (§2) For this purpose the activity of several pyrethroid insecticides has been tested per se or in combination with different benzimidazole type anthelmintics on flies (Musca domestica). […] This synergistic interaction was shown not only in the decrease of the therapeutical concentrations but also on the activity of the sublethal doses to the development. The body mass of the larvas is decreased and from the little aurelias evolved during the long development often deformed imagos, unsuitable for further multiplication were hatched out. Above all the synergistic interaction has made possible the decrease of the therapeutic dose of the orally administered insecticide.
(§3) For examining the interaction between benzimidazoles and pyrethroids the larvas of domestic flies in L3 status (Musca domestica WHO/SRS) were used as model organism.
(§4) A nutriment suitable for breeding fly larvas was prepared from yeast, milk, bran and water and the nutriment was portioned into plastic glasses. Acetonic strain solution was prepared from the active ingredients and after dilution the amounts necessary for achieving the desired active ingredient concentrations were added to the nutriment in the plastic glasses.
The examinations were carried out with total active ingredient concentrations of 1, 5, 10, 50, 100 and 200 ppm in 6 parallel tests per each concentration. Into the plastic glasses containing the treated culture medium 20--20 domestic fly-larvas of L3 status were placed after mass measurement. The glasses were covered by gauze and after 12 days the hatched imagos were counted. In the control containing only solvent the hatching ratio was 91%, the average weight of the hatched flies was 18.2 mg.

[4] = system: Musca domestica (L3 larvas); test: average body mass and hatching % of fly larvas/imagos after treatment; assay type: in vivo
Source text: as §2, §3, §4
Fly larvas of L3 status were grown in identical manner as in an Example 1, on a nutriment having a total active ingredient concentration of 5 and 10 ppm.

[5] = system: horses; details: horses (Vet. Med., 1985, Apr., p. 68); cited from earlier work
[6] = system: rats; test: acute per os toxicity (LD50), measured on rats; assay type: in vivo, rat
Source text: as §1

[7] = 100 ppm total active ingredient
[8] = 200 ppm total active ingredient

Row | Compound | LD50 [1] | Therapeutic index (selectivity) [2] | number of hatched imagos (from 120 L3) ([3]; 1 ppm total active ingredient) | number of hatched imagos (from 120 L3) ([3]; 5 ppm total active ingredient) | number of hatched imagos (from 120 L3) ([3]; 10 ppm total active ingredient) | number of hatched imagos (from 120 L3) ([3]; 50 ppm total active ingredient) | number of hatched imagos (from 120 L3) [3, 7] | number of hatched imagos (from 120 L3) [3, 8] | average body mass ([4]; 5 ppm total active ingredient) | hatching % ([4]; 5 ppm total active ingredient) | average body mass ([4]; 10 ppm total active ingredient) | hatching % ([4]; 10 ppm total active ingredient) | side effects accompanying treatment [5] | Toxicity acute per os LD50 [6] | Therapeutic dose ([2]; against horse bots, per os)
1 | COP(=O)(OC)OC=C(Cl)Cl [Dichlorvos, 2,2-dichlorovinyl-phosphonic acid dimethylester] | 56 mg/kg | 11 |  |  |  |  |  |  |  |  |  |  |  |  | 
2 | CCCSc1ccc2nc(NC(=O)OC)[nH]c2c1 [Albendazole, 5(6)-propylthio-benzimidazole-N-methylcarbamate] |  |  | 111 | 113 | 107 | 112 | 107 | 109 | 18.3 | 100% | 17.8 | 100% |  |  | 
3 | COP(=O)(OC)C(O)C(Cl)(Cl)Cl (stereo not drawn) [Trichlorfon, 2,2,2-trichloro-1-hydroxyethyl-phosphonic acid dimethylester] | 450 mg/kg | 15 |  |  |  |  |  |  |  |  |  |  | diarrhoea, frequent defecation and urination |  | 
4 | CC1(C)[C@H](C=C(Cl)Cl)[C@H]1C(=O)O[C@H](C#N)c1cccc(Oc2ccccc2)c1 (relative stereo) [Transmix, α-cyano-3-(2,2-dichlorovinyl)-2,2-dimethyl-cyclopropan-carboxylic acid-3-phenoxybenzylester] | 5000 mg/kg | 2500 | 108 | 112 | 89 | 64 | 39 | 18 | 12.9 | 98% | 9.6 | 84% |  |  | 
5 | CC1(C)C(C=C(Cl)Cl)C1C(=O)OC(C#N)c1cccc(Oc2ccccc2)c1 (stereo not drawn) [Chinmix, α-cyano-3-(2,2-dichlorovinyl)-2,2-dimethyl-cyclopropan-carboxylic acid-3-phenoxybenzylester] |  |  | 90 | 62 | 47 | 27 | 4 | 0 | 10.3 | 53% | 7.8 | 41% |  |  | 
6 | dihydro-avermectine B1 [Ivermectine] |  |  |  |  |  |  |  |  |  |  |  |  |  | 10 mg/kg | 0.2 mg/kg

Source: US5006545A, “Veterinary compositions against endoparasites containing cypermethrin and albendazole” (priority 1988, dated 1991)
